Test system: KCNQ channel protein
Experiment: 1D 13C half filtered 1H-1H NMR NOE fragment screening
Format: binding, rat
Settings: example of FIG. 3; mono- or di-methylated fragment A of DMP543; KCNQ protein solution
Text: The above-described NMR fragment assembly methods may be utilized to identify ligands for the KCNQ potassium channel, which can be affinity-purified from rat brain extracts using an affinity column with ligands such as DMP543, XE991 or linopirdine, covalently attached to a resin. The KCNQ channel is a membrane-bound protein and is considered large for NMR studies. […] Indeed, such methods have been recently applied to G-protein coupled receptors by using difference spectra in order to remove potential spectral artifacts from NMR experiments from chemical fragments that penetrate the lipid layer (Assadi-Porter et al, 2008). An important variation to that procedure (and inter-ligand NOE studies, as in FIG. 1), which is employed as part of the presently disclosed methods is to chemically place a ^13C labeled methyl group as an NMR reported group (the “NMR probe”), analogous to the antenna in FIG. 1. […] These experiments can be done on a 400 MHz, 500 MHz, 600 MHz or higher field NMR spectrometer, ideally equipped with a cryoprobe (and cryocooled ^13C preamp). […]
As a control in these experiments, the measured NOE or saturation transfer signal might be of the sample (perhaps a tissue extract) that has had the protein target removed (KCNQ in this case), which could be done using an affinity column. […]

**Q.** With Cc1ccnc(F)c1 [2-fluoro-4-methylpyridine] as the compound, how does the “NOE signal between 13CH3 group of fragment A and methyl group of fragment B (binding within 5 angstroms)” value read?
**A.** can show an NOE signal
